Measured values from ChEMBL document CHEMBL1151930, “Physicochemical determinants of human renal clearance” (J Med Chem, 2009).

Test: clinical
Conditions: human, in vivo
`Cn1c(=O)c2c(ncn2C)n(C)c1=O` [CAFFEINE] gave a CL renal of 0.02 mL/min/kg.
`CC1(C)S[C@@H]2[C@H](NC(=O)C(C(=O)O)c3ccccc3)C(=O)N2[C@H]1C(=O)O` (some centres not stated) [CARBENICILLIN] showed a CL renal of 1.9 mL/min/kg.
Compound `COc1ccccc1OCCNCC(O)COc1cccc2[nH]c3ccccc3c12` (configuration not stated) [CARVEDILOL] has a CL renal of 0.1 mL/min/kg.
For `CC1=C(C(=O)O)N2C(=O)[C@@H](NC(=O)[C@H](N)c3ccc(O)cc3)[C@H]2SC1` [CEFADROXIL], the CL renal was 2.33 mL/min/kg.
For `Cn1nnnc1SCC1=C(C(=O)O)N2C(=O)[C@@H](NC(=O)[C@H](O)c3ccccc3)[C@H]2SC1` [CEFAMANDOLE], the CL renal was 2.7 mL/min/kg.
For `N[C@@H](C(=O)N[C@@H]1C(=O)N2C(C(=O)O)=C(CSc3c[nH]nn3)CS[C@H]12)c1ccc(O)cc1` [CEFATRIZINE], the CL renal was 2.64 mL/min/kg.
In the case of `CO/N=C(\C(=O)N[C@@H]1C(=O)N2C(C(=O)O)=C(COC(C)=O)CS[C@H]12)c1csc(N)n1` [CEFOTAXIME], the CL renal is reported as 1.37 mL/min/kg.
`CC(C)(O/N=C(\C(=O)N[C@@H]1C(=O)N2C(C(=O)[O-])=C(C[n+]3ccccc3)CS[C@H]12)c1csc(N)n1)C(=O)O` [CEFTAZIDIME] gave a CL renal of 2.13 mL/min/kg.
With `CO/N=C(\C(=O)N[C@@H]1C(=O)N2C(C(=O)O)=CCS[C@H]12)c1csc(N)n1` [CEFTIZOXIME] the CL renal was 1.68 mL/min/kg.
With `CO/N=C(\C(=O)N[C@@H]1C(=O)N2C(C(=O)O)=C(CSc3nc(=O)c(=O)[nH]n3C)CS[C@H]12)c1csc(N)n1` [CEFTRIAXONE] the CL renal was 0.12 mL/min/kg.
`CO/N=C(\C(=O)N[C@@H]1C(=O)N2C(C(=O)O)=C(COC(N)=O)CS[C@H]12)c1ccco1` [CEFUROXIME] gave a CL renal of 2.11 mL/min/kg.
With `CC1=C(C(=O)O)N2C(=O)[C@@H](NC(=O)[C@H](N)C3=CCC=CC3)[C@H]2SC1` [CEPHRADINE] the CL renal was 3.14 mL/min/kg.
With `O=C(O)CCCc1ccc(N(CCCl)CCCl)cc1` [CHLORAMBUCIL] the CL renal was 0.03 mL/min/kg.
Compound `O=C(N[C@H](CO)[C@H](O)c1ccc([N+](=O)[O-])cc1)C(Cl)Cl` [CHLORAMPHENICOL] has a CL renal of 0.24 mL/min/kg.
`CCN(CC)CCCC(C)Nc1ccnc2cc(Cl)ccc12` (configuration not stated) [CHLOROQUINE] gave a CL renal of 2.3 mL/min/kg.
`CN(C)CCC(c1ccc(Cl)cc1)c1ccccn1` (configuration not stated) [CHLORPHENIRAMINE] gave a CL renal of 0.43 mL/min/kg.
Work on `CN(C)CCCN1c2ccccc2Sc2ccc(Cl)cc21` [CHLORPROMAZINE] yielded a CL renal of 0.16 mL/min/kg.
For `CCCNC(=O)NS(=O)(=O)c1ccc(Cl)cc1` [CHLORPROPAMIDE], the CL renal was 0.01 mL/min/kg.
Compound `NS(=O)(=O)c1cc(C2(O)NC(=O)c3ccccc32)ccc1Cl` (configuration not stated) [CHLORTHALIDONE] has a CL renal of 0.98 mL/min/kg.
For `Nc1ccn(C[C@@H](CO)OCP(=O)(O)O)c(=O)n1.O.O` [CIDOFOVIR], the CL renal was 2.25 mL/min/kg.
Work on `c1ccc(C2(c3ccccc3)CC2C2=NCCN2)cc1` (configuration not stated) [CIFENLINE] yielded a CL renal of 4.2 mL/min/kg.
In the case of `CC1(C)C[C@@H]1C(=O)N/C(=C\CCCCSC[C@H](N)C(=O)O)C(=O)O` [CILASTATIN], the CL renal is reported as 0.41 mL/min/kg.
`CN/C(=N/CCSCc1nc[nH]c1C)NC#N` [CIMETIDINE] gave a CL renal of 7.9 mL/min/kg.
Compound `CN(C)CCCC1(c2ccc(F)cc2)OCc2cc(C#N)ccc21` (configuration not stated) [CITALOPRAM] has a CL renal of 0.45 mL/min/kg.
For `Nc1nc(Cl)nc2c1ncn2[C@H]1C[C@H](O)[C@@H](CO)O1` [CLADRIBINE], the CL renal was 3.92 mL/min/kg.
With `O=C(O)[C@H]1/C(=C/CO)O[C@@H]2CC(=O)N21` [CLAVULANIC ACID] the CL renal was 1.33 mL/min/kg.
In the case of `NC1CCN(c2c(F)cc3c(=O)c(C(=O)O)cn(C4CC4)c3c2Cl)C1` (configuration not stated) [CLINAFLOXACIN], the CL renal is reported as 3.2 mL/min/kg.
Work on `CCC[C@@H]1C[C@@H](C(=O)N[C@@H]([C@H]2O[C@H](SC)[C@H](O)[C@@H](O)[C@H]2O)[C@H](C)Cl)N(C)C1` [CLINDAMYCIN] yielded a CL renal of 0.62 mL/min/kg.
For `Cc1ncsc1CCCl` [CLOMETHIAZOLE], the CL renal was 0.03 mL/min/kg.
Work on `O=C1CN=C(c2ccccc2Cl)c2cc([N+](=O)[O-])ccc2N1` [CLONAZEPAM] yielded a CL renal of 0.01 mL/min/kg.
Work on `COC(=O)[C@H]1[C@@H](OC(=O)c2ccccc2)C[C@@H]2CC[C@H]1N2C` [COCAINE] yielded a CL renal of 0.4 mL/min/kg.
For `COc1ccc2c3c1O[C@H]1[C@@H](O)C=C[C@H]4[C@@H](C2)N(C)CC[C@@]341` [CODEINE], the CL renal was 1.7 mL/min/kg.
In the case of `Nc1ccc(S(=O)(=O)c2ccc(N)cc2)cc1` [DAPSONE], the CL renal is reported as 0.05 mL/min/kg.
In the case of `Nc1ncn([C@H]2C[C@H](O)[C@@H](CO)O2)c(=O)n1` [DECITABINE], the CL renal is reported as 1.3 mL/min/kg.
Work on `C[C@@H]1C[C@H]2[C@@H]3CCC4=CC(=O)C=C[C@]4(C)[C@@]3(F)[C@@H](O)C[C@]2(C)[C@@]1(O)C(=O)CO` [DEXAMETHASONE] yielded a CL renal of 0.09 mL/min/kg.
For `CCCCCN(CCCOC)C(=O)[C@@H](CCC(=O)O)NC(=O)c1ccc(Cl)c(Cl)c1` [DEXLOXIGLUMIDE], the CL renal was 0.41 mL/min/kg.
In the case of `C[C@@H](CN1CC(=O)NC(=O)C1)N1CC(=O)NC(=O)C1` [DEXRAZOXANE], the CL renal is reported as 1.4 mL/min/kg.
`O=C(O)Cc1ccccc1Nc1c(Cl)cccc1Cl` [DICLOFENAC] showed a CL renal of 0.04 mL/min/kg.
With `O=c1[nH]cnc2c1ncn2[C@H]1CC[C@@H](CO)O1` [DIDANOSINE] the CL renal was 6.8 mL/min/kg.
`C[C@H]1O[C@@H](O[C@H]2[C@@H](O)C[C@H](O[C@H]3[C@@H](O)C[C@H](O[C@H]4CC[C@@]5(C)[C@H](CC[C@@H]6[C@@H]5C[C@@H](O)[C@]5(C)[C@@H](C7=CC(=O)OC7)CC[C@]65O)C4)O[C@@H]3C)O[C@@H]2C)C[C@H](O)[C@@H]1O` [DIGOXIN] gave a CL renal of 1.7 mL/min/kg.
`COc1ccc([C@@H]2Sc3ccccc3N(CCN(C)C)C(=O)[C@@H]2OC(C)=O)cc1` [DILTIAZEM] gave a CL renal of 9.23 mL/min/kg.
`CCC(C)(C)NCC(O)COc1ccccc1C(=O)CCc1ccccc1` (configuration not stated) [DIPRAFENONE] gave a CL renal of 0.04 mL/min/kg.
